In paper PMC7206119, “RIP1 inhibition blocks inflammatory diseases but not tumor growth or metastases” (Cell Death and Differentiation, 2019):

Experiments:
Test in all cases: biochemical
Design in all cases: DiscoverX kinase panel, active-site competition binding (KINOMEscan type), percent of control at one concentration
Conditions in all cases: competition binding, percent of control
[1] = biological target: EGFR (Homo sapiens, UniProt P00533)
Source text: (§1) To investigate the potential therapeutic benefit of inhibiting RIP1, we developed GNE684 or (S)-N-((S)-7-methoxy-1-methyl-2-oxo-2,3,4,5-tetrahydro-1H-pyrido[3,4-b]azepin-3-yl)-5-phenyl-6,7-dihydro-5H-pyrrolo[1,2-b][1,2,4]triazole-2-carboxamide with cross-species potency against RIP1, exquisite kinase selectivity, and favorable pharmacological properties (Fig. 1a–h, S1, Tables S1 and S2, SI file 1). […] (Fig. 1b, S1, and Table S1). […] GNE684 inhibited human RIP1 potently in vitro, and mouse and rat RIP1 with slightly less potency (Fig. 1d). Accordingly, it inhibited TNF-induced necroptosis in human HT-29, mouse L929, or rat H9c2 cells (Fig. 1e). The cellular potency of GNE684 was confirmed in a human whole blood assay using TBZ (TNF, IAP antagonist BV6, and pan-caspase inhibitor zVAD) or LZ (LPS plus zVAD) to trigger necroptosis and the release of IL-1α and IL-1β (Fig. 1f).

[2] = biological target: KIT(V559D,V654A) (Homo sapiens, UniProt P10721, V559D/V654A)
Source text: as §1

[3] = biological target: ITK (Homo sapiens, UniProt Q08881)
Source text: as §1

[4] = biological target: PIK3CA(E542K) (Homo sapiens, UniProt P42336, E542K)
Source text: as §1

[5] = biological target: EGFR(L861Q) (Homo sapiens, UniProt P00533, L861Q)
Source text: as §1

[6] = biological target: ULK1 (Homo sapiens, UniProt O75385)
Source text: as §1

[7] = biological target: T1, ABL1(Y253F)-phosphorylated (Homo sapiens, UniProt P00519, Y253F)
T1 construct: phosphorylated
Source text: as §1

[8] = biological target: T2, ABL1(M351T)-phosphorylated (Homo sapiens, UniProt P00519, M351T)
T2 construct: phosphorylated
Source text: as §1

[9] = biological target: T3, ASK1 (Homo sapiens, UniProt Q99683)
T3 construct: gene MAP3K5
Source text: as §1

[10] = biological target: T4, JAK2(JH1domain-catalytic) (Homo sapiens, UniProt O60674)
T4 construct: JH1domain-catalytic
Source text: as §1

[11] = biological target: T5, CDK11 (Homo sapiens, UniProt Q9BWU1)
T5 construct: gene CDK19
Source text: as §1

[12] = biological target: AKT1 (Homo sapiens, UniProt P31749)
Source text: as §1

[13] = biological target: AXL (Homo sapiens, UniProt P30530)
Source text: as §1

[14] = biological target: T6, CDK4-cyclinD1 (Homo sapiens, UniProt P11802)
T6 construct: cyclinD1
Source text: as §1

[15] = biological target: SRPK3 (Homo sapiens, UniProt Q9UPE1)
Source text: as §1

[16] = biological target: MAP4K3 (Homo sapiens, UniProt Q8IVH8)
Source text: as §1

[17] = biological target: GRK7 (Homo sapiens, UniProt Q8WTQ7)
Source text: as §1

[18] = biological target: EPHA7 (Homo sapiens, UniProt Q15375)
Source text: as §1

[19] = biological target: DAPK3 (Homo sapiens, UniProt O43293)
Source text: as §1

[20] = biological target: CSNK1G3 (Homo sapiens, UniProt Q9Y6M4)
Source text: as §1

[21] = biological target: T7, PIP5K2C (Homo sapiens, UniProt Q8TBX8)
T7 construct: gene PIP4K2C
Source text: as §1

MAP4K3, sequence (Q8IVH8 whole entry): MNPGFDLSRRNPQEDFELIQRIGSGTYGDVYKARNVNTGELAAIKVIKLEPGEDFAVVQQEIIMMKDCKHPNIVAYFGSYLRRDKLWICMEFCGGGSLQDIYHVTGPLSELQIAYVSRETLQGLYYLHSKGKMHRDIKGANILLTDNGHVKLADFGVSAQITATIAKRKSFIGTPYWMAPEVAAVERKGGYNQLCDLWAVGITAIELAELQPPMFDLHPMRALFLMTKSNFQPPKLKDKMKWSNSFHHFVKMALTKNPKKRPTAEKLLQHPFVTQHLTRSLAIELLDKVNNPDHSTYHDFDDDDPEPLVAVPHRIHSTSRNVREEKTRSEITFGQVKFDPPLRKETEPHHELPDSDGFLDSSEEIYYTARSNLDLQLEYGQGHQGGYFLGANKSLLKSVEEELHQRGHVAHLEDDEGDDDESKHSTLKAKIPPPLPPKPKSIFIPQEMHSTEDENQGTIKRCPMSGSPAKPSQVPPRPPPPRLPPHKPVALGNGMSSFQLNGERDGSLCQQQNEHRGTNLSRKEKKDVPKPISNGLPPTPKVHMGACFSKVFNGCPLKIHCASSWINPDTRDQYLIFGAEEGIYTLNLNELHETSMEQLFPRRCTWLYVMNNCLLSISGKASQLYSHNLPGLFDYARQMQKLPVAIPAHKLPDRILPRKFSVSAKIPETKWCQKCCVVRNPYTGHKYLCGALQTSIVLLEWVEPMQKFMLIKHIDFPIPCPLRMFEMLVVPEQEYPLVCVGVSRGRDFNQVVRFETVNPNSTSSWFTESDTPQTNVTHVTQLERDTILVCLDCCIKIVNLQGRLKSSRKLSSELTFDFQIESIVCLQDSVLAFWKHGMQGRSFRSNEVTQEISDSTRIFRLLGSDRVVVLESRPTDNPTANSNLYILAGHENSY
T6 sequence (P11802 whole entry): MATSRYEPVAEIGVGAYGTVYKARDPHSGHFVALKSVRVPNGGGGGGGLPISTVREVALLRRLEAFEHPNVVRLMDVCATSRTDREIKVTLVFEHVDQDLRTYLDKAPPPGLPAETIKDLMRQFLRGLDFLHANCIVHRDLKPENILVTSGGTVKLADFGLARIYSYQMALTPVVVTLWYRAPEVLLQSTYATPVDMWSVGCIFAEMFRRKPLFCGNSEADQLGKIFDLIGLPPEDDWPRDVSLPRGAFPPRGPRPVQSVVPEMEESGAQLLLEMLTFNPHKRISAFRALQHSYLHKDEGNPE
T6 sequence (P24385 whole entry partner): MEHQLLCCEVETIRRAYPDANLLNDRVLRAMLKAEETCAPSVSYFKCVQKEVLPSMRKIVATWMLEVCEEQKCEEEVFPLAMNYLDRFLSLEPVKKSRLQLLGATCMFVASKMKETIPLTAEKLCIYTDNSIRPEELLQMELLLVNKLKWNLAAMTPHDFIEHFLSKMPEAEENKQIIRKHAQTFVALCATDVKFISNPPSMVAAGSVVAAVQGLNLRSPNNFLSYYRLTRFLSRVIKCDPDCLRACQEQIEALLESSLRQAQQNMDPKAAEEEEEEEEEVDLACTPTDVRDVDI
ULK1, sequence (O75385 whole entry): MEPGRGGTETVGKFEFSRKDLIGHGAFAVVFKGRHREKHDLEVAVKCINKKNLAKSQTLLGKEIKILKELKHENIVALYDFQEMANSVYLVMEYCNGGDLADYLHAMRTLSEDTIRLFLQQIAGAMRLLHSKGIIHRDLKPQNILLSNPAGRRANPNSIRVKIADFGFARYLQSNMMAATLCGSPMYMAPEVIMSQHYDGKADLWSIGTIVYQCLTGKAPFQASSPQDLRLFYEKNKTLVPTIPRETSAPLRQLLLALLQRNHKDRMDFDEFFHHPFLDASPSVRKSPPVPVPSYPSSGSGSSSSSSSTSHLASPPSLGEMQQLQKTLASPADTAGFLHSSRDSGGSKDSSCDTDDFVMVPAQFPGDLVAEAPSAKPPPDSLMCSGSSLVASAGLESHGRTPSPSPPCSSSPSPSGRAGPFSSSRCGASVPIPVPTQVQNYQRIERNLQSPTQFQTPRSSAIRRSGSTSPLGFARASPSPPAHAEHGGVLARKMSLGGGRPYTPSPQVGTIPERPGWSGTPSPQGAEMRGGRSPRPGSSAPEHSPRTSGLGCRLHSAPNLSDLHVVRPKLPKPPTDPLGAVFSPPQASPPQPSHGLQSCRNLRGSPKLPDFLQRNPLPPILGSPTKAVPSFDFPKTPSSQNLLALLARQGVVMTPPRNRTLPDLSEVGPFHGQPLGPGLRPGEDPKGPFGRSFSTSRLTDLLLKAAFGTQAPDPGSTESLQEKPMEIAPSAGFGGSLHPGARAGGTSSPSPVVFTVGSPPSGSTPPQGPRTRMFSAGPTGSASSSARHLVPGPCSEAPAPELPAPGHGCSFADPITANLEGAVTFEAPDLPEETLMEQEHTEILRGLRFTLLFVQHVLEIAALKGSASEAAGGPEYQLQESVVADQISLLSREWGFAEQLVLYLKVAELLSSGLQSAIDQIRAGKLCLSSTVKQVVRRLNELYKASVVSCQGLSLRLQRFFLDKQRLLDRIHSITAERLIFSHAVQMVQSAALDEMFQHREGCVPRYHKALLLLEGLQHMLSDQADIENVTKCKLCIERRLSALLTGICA
DAPK3, sequence (O43293 whole entry): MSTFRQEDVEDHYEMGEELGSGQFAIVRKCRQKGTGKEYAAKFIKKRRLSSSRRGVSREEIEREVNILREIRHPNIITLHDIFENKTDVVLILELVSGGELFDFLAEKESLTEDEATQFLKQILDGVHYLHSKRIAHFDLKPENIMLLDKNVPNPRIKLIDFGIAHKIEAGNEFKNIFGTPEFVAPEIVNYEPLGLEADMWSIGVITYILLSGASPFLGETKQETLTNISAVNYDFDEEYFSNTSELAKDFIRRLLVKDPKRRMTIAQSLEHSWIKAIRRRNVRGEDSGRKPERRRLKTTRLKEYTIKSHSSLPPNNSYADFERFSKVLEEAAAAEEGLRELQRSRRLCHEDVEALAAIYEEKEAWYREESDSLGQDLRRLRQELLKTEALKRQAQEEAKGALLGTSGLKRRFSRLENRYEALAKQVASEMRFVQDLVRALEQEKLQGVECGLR
T4 sequence (O60674 whole entry): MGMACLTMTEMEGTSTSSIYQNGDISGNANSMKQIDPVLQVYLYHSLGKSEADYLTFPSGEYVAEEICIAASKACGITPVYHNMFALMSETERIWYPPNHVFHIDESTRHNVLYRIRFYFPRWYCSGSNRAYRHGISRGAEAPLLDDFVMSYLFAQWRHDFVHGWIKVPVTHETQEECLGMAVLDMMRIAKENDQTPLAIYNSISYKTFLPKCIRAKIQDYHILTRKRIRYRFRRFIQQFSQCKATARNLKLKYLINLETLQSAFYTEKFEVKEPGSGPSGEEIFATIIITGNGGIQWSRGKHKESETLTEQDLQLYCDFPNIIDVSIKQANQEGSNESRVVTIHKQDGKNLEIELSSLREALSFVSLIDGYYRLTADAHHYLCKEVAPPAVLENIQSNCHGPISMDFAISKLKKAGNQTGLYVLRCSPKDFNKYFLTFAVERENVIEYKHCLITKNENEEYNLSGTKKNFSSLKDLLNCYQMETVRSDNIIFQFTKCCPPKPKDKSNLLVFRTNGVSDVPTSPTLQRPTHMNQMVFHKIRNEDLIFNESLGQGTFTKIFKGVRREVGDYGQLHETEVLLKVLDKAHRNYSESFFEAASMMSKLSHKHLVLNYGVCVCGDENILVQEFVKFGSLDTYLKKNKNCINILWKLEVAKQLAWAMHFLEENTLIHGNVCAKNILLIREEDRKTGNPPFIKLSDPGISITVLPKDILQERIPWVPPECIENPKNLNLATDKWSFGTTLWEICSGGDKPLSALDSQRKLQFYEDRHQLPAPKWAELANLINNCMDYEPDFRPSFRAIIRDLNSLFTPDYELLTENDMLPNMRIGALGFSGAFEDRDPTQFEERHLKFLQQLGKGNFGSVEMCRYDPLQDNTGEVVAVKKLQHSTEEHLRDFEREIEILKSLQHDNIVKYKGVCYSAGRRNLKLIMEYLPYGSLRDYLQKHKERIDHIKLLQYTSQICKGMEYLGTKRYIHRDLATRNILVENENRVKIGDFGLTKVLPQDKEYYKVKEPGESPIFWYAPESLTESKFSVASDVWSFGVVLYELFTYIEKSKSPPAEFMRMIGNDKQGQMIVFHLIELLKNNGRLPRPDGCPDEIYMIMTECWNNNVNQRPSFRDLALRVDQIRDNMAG
AKT1, sequence (P31749 whole entry): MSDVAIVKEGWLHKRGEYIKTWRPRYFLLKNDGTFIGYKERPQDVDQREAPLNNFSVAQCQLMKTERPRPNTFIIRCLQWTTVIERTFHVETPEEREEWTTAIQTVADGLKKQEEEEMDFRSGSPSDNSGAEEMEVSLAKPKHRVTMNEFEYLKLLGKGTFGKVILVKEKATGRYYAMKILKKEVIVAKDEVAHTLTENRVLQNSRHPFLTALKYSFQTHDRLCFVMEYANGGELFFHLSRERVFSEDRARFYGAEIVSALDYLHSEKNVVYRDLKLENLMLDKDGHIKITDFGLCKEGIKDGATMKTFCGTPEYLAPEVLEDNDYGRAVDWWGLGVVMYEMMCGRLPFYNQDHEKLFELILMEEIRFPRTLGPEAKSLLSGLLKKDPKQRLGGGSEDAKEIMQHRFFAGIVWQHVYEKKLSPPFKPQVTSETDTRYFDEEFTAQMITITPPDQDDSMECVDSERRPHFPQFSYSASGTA
T7 sequence (Q8TBX8 whole entry): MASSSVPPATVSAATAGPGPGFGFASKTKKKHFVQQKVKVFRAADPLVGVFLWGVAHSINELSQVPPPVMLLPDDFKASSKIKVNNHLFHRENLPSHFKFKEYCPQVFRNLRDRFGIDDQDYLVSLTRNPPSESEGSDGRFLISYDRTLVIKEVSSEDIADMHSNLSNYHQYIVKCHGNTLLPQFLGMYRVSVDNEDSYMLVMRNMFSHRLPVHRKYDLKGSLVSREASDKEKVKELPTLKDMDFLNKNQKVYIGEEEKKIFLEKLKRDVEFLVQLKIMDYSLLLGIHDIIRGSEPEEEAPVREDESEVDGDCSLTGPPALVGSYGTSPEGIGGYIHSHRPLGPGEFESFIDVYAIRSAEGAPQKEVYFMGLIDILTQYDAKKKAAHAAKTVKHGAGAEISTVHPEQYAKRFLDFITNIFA

SMILES: COc1cc2c(cn1)N(C)C(=O)[C@@H](NC(=O)c1nc3n(n1)[C@H](c1ccccc1)CC3)CC2 [GNE684, (S)-N-((S)-7-methoxy-1-methyl-2-oxo-2,3,4,5-tetrahydro-1H-pyrido[3,4-b]azepin-3-yl)-5-phenyl-6,7-dihydro-5H-pyrrolo[1,2-b][1,2,4]triazole-2-carboxamide]
- remaining binding at 10 µM [1]: 100%
- remaining binding at 10 µM [2]: 100%
- remaining binding at 10 µM [3]: 100%
- remaining binding at 10 µM [4]: 41%
- remaining binding at 10 µM [5]: 96%
- remaining binding at 10 µM [6]: 98%
- remaining binding at 10 µM [7]: 100%
- remaining binding at 10 µM [8]: 100%
- remaining binding at 10 µM [9]: 97%
- remaining binding at 10 µM [10]: 100%
- remaining binding at 10 µM [11]: 81%
- remaining binding at 10 µM [12]: 74%
- remaining binding at 10 µM [13]: 96%
- remaining binding at 10 µM [14]: 87%
- remaining binding at 10 µM [15]: 100%
- remaining binding at 10 µM [16]: 99%
- remaining binding at 10 µM [17]: 100%
- remaining binding at 10 µM [18]: 100%
- remaining binding at 10 µM [19]: 76%
- remaining binding at 10 µM [20]: 95%
- remaining binding at 10 µM [21]: 76%
